# In PMC12074479, “Design, Synthesis, and Biological Evaluation of New Analogs of Aurein 1.2 Containing Non-Proteinogenic Amino Acids” (Molecules, 2025):
# Where two headings read alike, the source gives them in different places. Where a SMILES comes first, the peptide text is derived from it. Where no end group is shown, it is not given here. [ ]: non-standard residue; d: D form. Orn = NCCC[C@H](N)C(=O)O; Dab = NCC[C@H](N)C(=O)O
# What was measured:
# in vitro = conditions: mouse, Mean CC50 ± SD
# Procedure: (§1) An in vitro BALB 3T3 Neutral Red Uptake assay was used to determine the cytotoxicity/phototoxicity of the peptides. Cytotoxicity of peptide analogs was calculated as a percentage relative to the negative control. […] Photo irritation factor (PIF) was used to assess the phototoxic potential of the peptide analogs. The PIF factor represents the ratio between the CC50 values of dark (non-irradiated or—Irr) and irradiated (+Irr) microplates, PIF = (CC50 − Irr)/(CC50 + Irr).
# (§2) Mouse embryonic fibroblasts (BALB 3T3) were used to perform the cytotoxicity and phototoxicity tests. The tests were performed by OECD Guidelines for the Testing of Chemicals, Section 4, Test No. 432. Cells were plated at 1 × 10^4 cells/well in 96-well plates. Cells were incubated in a thermostat for 24 h. Then, the test peptides were added at various working concentrations (4–1000 μM). In the phototoxicity test, 96-well plates were irradiated with a dose of 2.4 J/cm^2 using a solar light simulator Helios-iO (SERIC Ltd., Tokyo, Japan). Cell viability was measured using the BALB 3T3 neutral red uptake test. Cytotoxicity is presented as % relative to the negative control.
# BALB 3T3 cells = test: in vitro
# Procedure: as §1, §2
# [1] = system: Escherichia coli NBIMCC K12 407
# Procedure: (§3) The antimicrobial activity of the 7 new analogs of aurein 1.2 was evaluated by determining the MIC and MBC against Gram-positive strain Bacillus subtilis 3562 and Gram-negative strain Escherichia coli K12 407. The MIC of the newly synthesized analogs was assessed by applying a broth microdilution method, whereas their MBC was determined by using a spread plate method. All experiments were performed in triplicate.
# (§4) Bacillus subtilis NBIMCC 3562 and Escherichia coli NBIMCC K12 407 were used as test microorganisms and were purchased from the National Bank for Industrial Microorganisms and Cell Cultures (NBIMCC, Sofia, Bulgaria). Exponential cultures were obtained in Nutrient broth (NB, HiMedia, Mumbai, India) for B. subtilis NBIMCC 3562 and Luria-Bertani (LB, HiMedia, Mumbai, India) for E. coli NBIMCC K12 407, after cultivation in an incubator shaker ES-20/60 (Biosan, Latvia) at 30/37 °C for 24 h. Then, the turbidity of the microbial cultures was adjusted to the 0.5 McFarland standard using a Grant Bio DEN-1B Densitometer (Grant Instruments, Royston, UK).
# (§5) The antimicrobial activity of the obtained aurein 1.2 analogs was evaluated using the broth microdilution method, recommended by the Clinical and Laboratory Standards Institute (CLSI), to determine the minimum inhibitory concentration (MIC) of the peptides against B. subtilis NBIMCC 3562 and E. coli NBIMCC K12 407. All peptides were previously dissolved in 10% EtOH/H2O, and their 10 mg/mL stock solutions were stored at −20 °C. Bacterial cultures, previously adjusted to 0.5 McFarland standard, were incubated in the presence of different peptide concentrations (0–320 µg/mL) in 96-well polystyrene microplates (Deltalab S.L., Barcelona, Spain) at 30/37 °C for 24 h. The lowest concentration of each peptide, which inhibited bacterial growth, was considered as MIC. In addition, a drop of 20 µL of the 24 h inhibitory concentration test samples was spotted on the corresponding solid media to determine the minimum bactericidal concentration (MBC). […] All experiments were performed in triplicate.
# [2] = system: Bacillus subtilis NBIMCC 3562
# Procedure: as §3, §4, §5
# MCF-12F = test: cells; conditions: 72 h
# Procedure: (§6) The peptides were studied for antiproliferative activity with an MTT-dye reduction assay. Cell cultures were incubated with the test peptides in twofold increasing concentrations (from 2 to 500 μM) for 72 h.
# (§7) The antiproliferative activity of the peptides was determined in normal epithelial cells (MCF-12F) and tumor cells (MCF-7 and MDA-MB-231) by MTT-assay. Cells were plated 1 × 10^3 cells/100 µL/well of 96-well plates and incubated in a thermostat under standard conditions for 24 h. Cells were then incubated with the tested peptide analogs for 72 h in different concentrations (from 2 to 500 µM). The optical density of the formazan was measured at λ = 540 nm using a microplate reader. Antiproliferative activity was expressed as % from negative control. […] The statistical analysis of the results was performed using one-way ANOVA followed by Bonferroni’s post hoc test by GraphPad Prism 8 software (San Diego, CA, USA).
# MCF-7 = test: cells; conditions: 72 h
# Procedure: as §6, §7
# MDA-MB-231 = test: cells; conditions: 72 h
# Procedure: as §6, §7
# [3] = +Irr, BALB 3T3 cells, irradiated 2.4 J/cm^2, NRU
# [4] = −Irr, BALB 3T3 cells, non-irradiated (dark), NRU
# [5] = broth microdilution, 0–320 µg/mL, 24 h, NI = no inhibition monitored
molecule,measurement,setting,value
"CN(C)CCCN1c2ccccc2Sc2ccc(Cl)cc21 [Chlorpromazine, reference compound]",CC50,in vitro; +Irr,2.04 ± 0.07 µM
same,PIF (Photo Irritation Factor),BALB 3T3 cells; mouse,6.06
"CC[C@H](C)[C@H](NC(=O)[C@H](CCCCN)NC(=O)[C@H](CCCN)NC(=O)[C@@H](NC(=O)[C@@H](NC(=O)[C@H](CC(=O)O)NC(=O)[C@H](Cc1ccccc1)NC(=O)[C@H](CC(C)C)NC(=O)CN)[C@@H](C)CC)[C@@H](C)CC)C(=O)N[C@@H](C)C(=O)N[C@@H](CCC(=O)O)C(=O)N[C@@H](CO)C(=O)N[C@@H](Cc1ccccc1)C(N)=O [EH [Orn]^7, Gly-Leu-Phe-Asp-Ile-Ile-Orn^7-Lys-Ile-Ala-Glu-Ser-Phe-NH2] (H-GLFDII[Orn]KIAESF-NH2)",CC50,in vitro; [3],102 ± 7.4 µM
same,CC50,in vitro; [4],134 ± 7.4 µM
"CC[C@H](C)[C@H](NC(=O)[C@H](CCN)NC(=O)[C@H](CCCCN)NC(=O)[C@@H](NC(=O)[C@@H](NC(=O)[C@H](CC(=O)O)NC(=O)[C@H](Cc1ccccc1)NC(=O)[C@H](CC(C)C)NC(=O)CN)[C@@H](C)CC)[C@@H](C)CC)C(=O)N[C@@H](C)C(=O)N[C@@H](CCC(=O)O)C(=O)N[C@@H](CO)C(=O)N[C@@H](Cc1ccccc1)C(N)=O [EH [Dab]^8, Gly-Leu-Phe-Asp-Ile-Ile-Lys-Dab^8-Ile-Ala-Glu-Ser-Phe-NH2] (H-GLFDIIK[Dab]IAESF-NH2)","MIC, Escherichia coli NBIMCC K12 407","[1]; K12, 24 h",80 µg/mL
same,"MBC, Bacillus subtilis NBIMCC 3562","[2]; NBIMCC 3562, 24 h",320 µg/mL
same,"MIC, Bacillus subtilis NBIMCC 3562","[2]; NBIMCC 3562, 24 h",80 µg/mL
same,CC50,in vitro; +Irr,81.4 ± 2.34 µM
same,PIF (Photo Irritation Factor),BALB 3T3 cells,1.13
same,IC50,MCF-12F,68.3 ± 3.51 µM
same,IC50,MCF-7,67.2 ± 2.57 µM
same,IC50,MDA-MB-231,79.7 ± 1.78 µM
"CC[C@H](C)[C@H](NC(=O)[C@H](CCCN)NC(=O)[C@H](CCCCN)NC(=O)[C@@H](NC(=O)[C@@H](NC(=O)[C@H](CC(=O)O)NC(=O)[C@H](Cc1ccccc1)NC(=O)[C@H](CC(C)C)NC(=O)CN)[C@@H](C)CC)[C@@H](C)CC)C(=O)N[C@@H](C)C(=O)N[C@@H](CCC(=O)O)C(=O)N[C@@H](CO)C(=O)N[C@@H](Cc1ccccc1)C(N)=O [EH [Orn]^8, Gly-Leu-Phe-Asp-Ile-Ile-Lys-Orn^8-Ile-Ala-Glu-Ser-Phe-NH2] (H-GLFDIIK[Orn]IAESF-NH2)",CC50,in vitro; [3],59.5 ± 5.21 µM
same,CC50,in vitro; [4],75.6 ± 3.33 µM
"GLFDIIKKIAESF-NH2 [Aurein 1.2, Gly^1-Leu^2-Phe^3-Asp^4-Ile^5-Ile^6-Lys^7-Lys^8-Ile^9-Ala^10-Glu^11-Ser^12-Phe^13-NH2]","MIC, Escherichia coli NBIMCC K12 407",[1]; [5],40 µg/mL
same,"MIC, Bacillus subtilis NBIMCC 3562",[2]; [5],160 µg/mL
same,CC50,in vitro; [3],87.2 ± 1.88 µM
same,CC50,in vitro; [4],87.6 ± 2.45 µM
same,PIF (Photo Irritation Factor),"BALB 3T3 cells; PIF = (CC50 −Irr)/(CC50 +Irr), PIF < 2 not phototoxic, 2 < PIF < 5 possible phototoxicity, PIF > 5 phototoxic",1
same,IC50,"MCF-12F; read-out: Mean IC50 ± SD, MCF-12F, MTT, normal cell line",71.4 ± 2.88 µM
same,IC50,"MCF-7; read-out: Mean IC50 ± SD, MCF-7, MTT",68.9 ± 2.12 µM
same,IC50,"MDA-MB-231; read-out: Mean IC50 ± SD, MDA-MB-231, MTT",70.9 ± 2.06 µM
